Reference: patent US20240399142A1, “Methods Of Using Alternating Electric Fields And Checkpoint Inhibitors” (NOVOCURE GMBH, priority 2023, published 2024)

Assay: LUNAR study safety: adverse events per CTCAE version 4.03, safety population
Assay type: in vivo, human
[1] = Grade 3, nervous system disorders
[2] = Grade 3, renal and urinary disorders
[3] = Grade 3, respiratory, thoracic, and mediastinal disorders
[4] = Grade 3, skin and subcutaneous tissue disorders

Experimental: Safety and treatment data were compiled from all patients who received any study therapy and were analyzed according to the actual treatment received. Analyses were performed using SAS software, version 9.4 (SAS Institute).

CC(=O)O[C@@]12CO[C@@H]1C[C@H](O)[C@@]1(C)C(=O)[C@H](O)C3=C(C)[C@@H](OC(=O)[C@H](O)[C@@H](NC(=O)OC(C)(C)C)c4ccccc4)C[C@@](O)([C@@H](OC(=O)c4ccccc4)[C@H]21)C3(C)C [Docetaxel, docetaxel]
Alopecia (All grades): 22 (32.4) no. (%)
Anemia (All grades): 19 (27.9) no. (%)
Any adverse event (All grades): 61 (89.7) no. (%)
Arthralgia (All grades): 7 (10.3) no. (%)
Asthenia (All grades): 10 (14.7) no. (%)
Back pain (All grades): 4 (5.9) no. (%)
Constipation (All grades): 10 (14.7) no. (%)
Cough (All grades): 11 (16.2) no. (%)
Decreased appetite (All grades): 11 (16.2) no. (%)
Dermatitis (All grades): 0 no. (%)
Diarrhea (All grades): 12 (17.6) no. (%)
Dysphagia (All grades): 1 (1.5) no. (%)
Dyspnea (All grades): 19 (27.9) no. (%)
Fatigue (All grades): 18 (26.5) no. (%)
Headache (All grades): 6 (8.8) no. (%)
Hypoalbuminemia (All grades): 8 (11.8) no. (%)
Hypokalemia (All grades): 8 (11.8) no. (%)
Hyponatremia (All grades): 4 (5.9) no. (%)
Nausea (All grades): 10 (14.7) no. (%)
Neutropenia (All grades): 15 (22.1) no. (%)
Neutrophil count decreased (All grades): 6 (8.8) no. (%)
Oedema peripheral (All grades): 9 (13.2) no. (%)
Pleural effusion (All grades): 8 (11.8) no. (%)
Pneumonia (All grades): 11 (16.2) no. (%)
Pruritus (All grades): 0 no. (%)
Pyrexia (All grades): 9 (13.2) no. (%)
Rash (All grades): 2 (2.9) no. (%)
Rash maculopapular (All grades): 3 (4.4) no. (%)
Skin irritation (All grades): 0 no. (%)
Upper respiratory tract infection (All grades): 1 (1.5) no. (%)
Vomiting (All grades): 7 (10.3) no. (%)
White blood cell count decreased (All grades): 7 (10.3) no. (%)
Acute myocardial infarction (Grade 3): 0 no. (%)
Adenocarcinoma of colon (Grade 3): 0 no. (%)
Alanine aminotransferase increased (Grade 3): 1 (1.5) no. (%)
Anemia (Grade 3): 8 (11.8) no. (%)
Anemia macrocytic (Grade 3): 1 (1.5) no. (%)
Any adverse event (Grade 3): 23 (33.8) no. (%)
Arthralgia (Grade 3): 0 no. (%)
Ascites (Grade 3): 0 no. (%)
Aspergillus infection (Grade 3): 0 no. (%)
Asthenia (Grade 3): 4 (5.9) no. (%)
Atrial tachycardia (Grade 3): 1 (1.5) no. (%)
Autoimmune colitis (Grade 3): 0 no. (%)
Back pain (Grade 3): 0 no. (%)
Blood bilirubin increased (Grade 3): 0 no. (%)
Bone pain (Grade 3): 1 (1.5) no. (%)
Bronchiolitis (Grade 3): 0 no. (%)
Bronchitis (Grade 3): 0 no. (%)
C-reactive protein increased (Grade 3): 0 no. (%)
Cancer pain (Grade 3): 1 (1.5) no. (%)
Cardiac failure congestive (Grade 3): 0 no. (%)
Cardiac tamponade (Grade 3): 0 no. (%)
Cardiac ventricular thrombosis (Grade 3): 0 no. (%)
Cataract (Grade 3): 0 no. (%)
Chest pain (Grade 3): 0 no. (%)
Cholangitis (Grade 3): 1 (1.5) no. (%)
Cholecystitis (Grade 3): 0 no. (%)
Cholelithiasis (Grade 3): 0 no. (%)
Clostridium bacteremia (Grade 3): 0 no. (%)
Coronary artery disease (Grade 3): 0 no. (%)
Decreased appetite (Grade 3): 0 no. (%)
Dehydration (Grade 3): 1 (1.5) no. (%)
Diarrhea (Grade 3): 0 no. (%)
Diverticulitis (Grade 3): 0 no. (%)
Drug hypersensitivity (Grade 3): 1 (1.5) no. (%)
Encephalitis (Grade 3): 0 no. (%)
Esophagitis (Grade 3): 0 no. (%)
Euthanasia (Grade 3): 0 no. (%)
Fatigue (Grade 3): 4 (5.9) no. (%)
Febrile neutropenia (Grade 3): 3 (4.4) no. (%)
Femoral neck fracture (Grade 3): 0 no. (%)
Forced expiratory volume decreased (Grade 3): 1 (1.5) no. (%)
Gastroenteritis norovirus (Grade 3): 1 (1.5) no. (%)
Gastroenteritis salmonella (Grade 3): 0 no. (%)
General physical health deterioration (Grade 3): 0 no. (%)
Hematochezia (Grade 3): 0 no. (%)
Hepatic enzyme increased (Grade 3): 0 no. (%)
Hip fracture (Grade 3): 0 no. (%)
Hypercalcemia (Grade 3): 0 no. (%)
Hyperglycemia (Grade 3): 1 (1.5) no. (%)
Hyperkalaemia (Grade 3): 0 no. (%)
Hypertriglyceridaemia (Grade 3): 0 no. (%)
Hypoalbuminemia (Grade 3): 1 (1.5) no. (%)
Hypocalcaemia (Grade 3): 0 no. (%)
Hypokalemia (Grade 3): 0 no. (%)
Hyponatremia (Grade 3): 2 (2.9) no. (%)
Ileus (Grade 3): 1 (1.5) no. (%)
Infection (Grade 3): 0 no. (%)
Intestinal dilatation (Grade 3): 1 (1.5) no. (%)
Intestinal hemorrhage (Grade 3): 1 (1.5) no. (%)
Intestinal perforation (Grade 3): 0 no. (%)
Large intestine perforation (Grade 3): 0 no. (%)
Leukopenia (Grade 3): 3 (4.4) no. (%)
Liver disorder (Grade 3): 1 (1.5) no. (%)
Localized oedema (Grade 3): 0 no. (%)
Lung abscess (Grade 3): 0 no. (%)
Lymphocyte count decreased (Grade 3): 0 no. (%)
Lymphopenia (Grade 3): 0 no. (%)
Malignant ascites (Grade 3): 1 (1.5) no. (%)
Malignant pleural effusion (Grade 3): 1 (1.5) no. (%)
Malnutrition (Grade 3): 0 no. (%)
Metastases to bone (Grade 3): 0 no. (%)
Metastases to central nervous system (Grade 3): 2 (2.9) no. (%)
Metastases to meninges (Grade 3): 0 no. (%)
Metastases to skin (Grade 3): 0 no. (%)
Mouth ulceration (Grade 3): 0 no. (%)
Mucosal inflammation (Grade 3): 1 (1.5) no. (%)
Multiple organ dysfunction syndrome (Grade 3): 0 no. (%)
Muscular weakness (Grade 3): 1 (1.5) no. (%)
Myalgia (Grade 3): 0 no. (%)
Myocardial infarction (Grade 3): 1 (1.5) no. (%)
Nausea (Grade 3): 0 no. (%)
Neck pain (Grade 3): 1 (1.5) no. (%)
Neuropathy peripheral (Grade 3): 0 no. (%)
Neutropenia (Grade 3): 1 (1.5) no. (%)
Neutrophil count decreased (Grade 3): 2 (2.9) no. (%)
Non-cardiac chest pain (Grade 3): 1 (1.5) no. (%)
Oedema peripheral (Grade 3): 2 (2.9) no. (%)
Oral candidiasis (Grade 3): 0 no. (%)
Pancreatic failure (Grade 3): 1 (1.5) no. (%)
Pancreatitis (Grade 3): 0 no. (%)
Pericardial effusion (Grade 3): 0 no. (%)
Peripheral sensory (Grade 3): 1 (1.5) no. (%)
Platelet count decreased (Grade 3): 0 no. (%)
Pneumonia (Grade 3): 7 (10.3) no. (%)
Pneumonia pseudomonal (Grade 3): 0 no. (%)
Pneumonia staphylococcal (Grade 3): 0 no. (%)
Pyelonephritis (Grade 3): 0 no. (%)
Pyopneumothorax (Grade 3): 1 (1.5) no. (%)
Pyrexia (Grade 3): 0 no. (%)
Refeeding syndrome (Grade 3): 1 (1.5) no. (%)
Respiratory tract infection (Grade 3): 0 no. (%)
Right ventricular failure (Grade 3): 1 (1.5) no. (%)
Sepsis (Grade 3): 1 (1.5) no. (%)
Septic shock (Grade 3): 0 no. (%)
Skin infection (Grade 3): 0 no. (%)
Stomatitis (Grade 3): 0 no. (%)
Subileus (Grade 3): 0 no. (%)
Thrombocytopenia (Grade 3): 0 no. (%)
Thyroiditis subacute (Grade 3): 0 no. (%)
Tumor pain (Grade 3): 0 no. (%)
Upper respiratory tract infection (Grade 3): 0 no. (%)
Urinary tract infection (Grade 3): 0 no. (%)
Urosepsis (Grade 3): 0 no. (%)
Vomiting (Grade 3): 0 no. (%)
Weight decreased (Grade 3): 0 no. (%)
White blood cell count decreased (Grade 3): 5 (7.4) no. (%)
Brain oedema [1]: 0 no. (%)
Cauda equina syndrome [1]: 0 no. (%)
Dysarthria [1]: 0 no. (%)
Embolic stroke [1]: 0 no. (%)
Hemiparesis [1]: 1 (1.5) no. (%)
Motor dysfunction [1]: 0 no. (%)
Nervous system disorder [1]: 0 no. (%)
Neurologic neglect syndrome [1]: 1 (1.5) no. (%)
Neurotoxicity [1]: 0 no. (%)
Peripheral sensorimotor neuropathy [1]: 2 (2.9) no. (%)
Quadriparesis [1]: 0 no. (%)
Seizure [1]: 0 no. (%)
Syncope [1]: 2 (2.9) no. (%)
Vocal cord paralysis [1]: 0 no. (%)
Anxiety (Grade 3, psychiatric disorders): 0 no. (%)
Confusional state (Grade 3, psychiatric disorders): 0 no. (%)
Mental status changes (Grade 3, psychiatric disorders): 0 no. (%)
Acute kidney injury [2]: 0 no. (%)
Urinary retention [2]: 0 no. (%)
Acute respiratory failure [3]: 0 no. (%)
Atelectasis [3]: 2 (2.9) no. (%)
Bronchial obstruction [3]: 0 no. (%)
Bronchopleural fistula [3]: 0 no. (%)
Chronic obstructive pulmonary disease [3]: 1 (1.5) no. (%)
Cough [3]: 0 no. (%)
Dyspnoea [3]: 2 (2.9) no. (%)
Esophago-bronchial fistula [3]: 0 no. (%)
Hemoptysis [3]: 1 (1.5) no. (%)
Hypoxia [3]: 2 (2.9) no. (%)
Interstitial lung disease [3]: 0 no. (%)
Pleural effusion [3]: 4 (5.9) no. (%)
Pneumonia aspiration [3]: 0 no. (%)
Pneumonitis [3]: 1 (1.5) no. (%)
Pulmonary embolism [3]: 1 (1.5) no. (%)
Pulmonary hemorrhage [3]: 0 no. (%)
Respiratory failure [3]: 0 no. (%)
Alopecia [4]: 1 (1.5) no. (%)
Dermatitis exfoliative [4]: 0 no. (%)
Pruritus [4]: 0 no. (%)
Rash [4]: 0 no. (%)
Rash erythematous [4]: 0 no. (%)
Rash maculopapular [4]: 0 no. (%)
Skin erosion [4]: 0 no. (%)
Skin reaction [4]: 0 no. (%)
Skin toxicity [4]: 0 no. (%)
Deep vein thrombosis (Grade 3, vascular disorders): 0 no. (%)
Embolism (Grade 3, vascular disorders): 0 no. (%)
Hypertension (Grade 3, vascular disorders): 0 no. (%)
Jugular vein thrombosis (Grade 3, vascular disorders): 0 no. (%)
Peripheral arterial occlusive disease (Grade 3, vascular disorders): 0 no. (%)
Vena cava embolism (Grade 3, vascular disorders): 0 no. (%)
Acute myocardial infarction (Grade 4): 0 no. (%)
Adenocarcinoma of colon (Grade 4): 0 no. (%)
Alanine aminotransferase increased (Grade 4): 0 no. (%)
Anemia (Grade 4): 0 no. (%)
Anemia macrocytic (Grade 4): 0 no. (%)
Any adverse event (Grade 4): 16 (23.5) no. (%)
Arthralgia (Grade 4): 0 no. (%)
Ascites (Grade 4): 0 no. (%)
Aspergillus infection (Grade 4): 0 no. (%)
Asthenia (Grade 4): 0 no. (%)
Atrial tachycardia (Grade 4): 0 no. (%)
Autoimmune colitis (Grade 4): 0 no. (%)
Back pain (Grade 4): 0 no. (%)
Blood bilirubin increased (Grade 4): 0 no. (%)
Bone pain (Grade 4): 0 no. (%)
Bronchiolitis (Grade 4): 0 no. (%)
Bronchitis (Grade 4): 0 no. (%)
C-reactive protein increased (Grade 4): 0 no. (%)
Cancer pain (Grade 4): 0 no. (%)
Cardiac failure congestive (Grade 4): 0 no. (%)
Cardiac tamponade (Grade 4): 0 no. (%)
Cardiac ventricular thrombosis (Grade 4): 0 no. (%)
Cataract (Grade 4): 0 no. (%)
Chest pain (Grade 4): 0 no. (%)
Cholangitis (Grade 4): 0 no. (%)
Cholecystitis (Grade 4): 0 no. (%)
Cholelithiasis (Grade 4): 0 no. (%)
Clostridium bacteremia (Grade 4): 0 no. (%)
Coronary artery disease (Grade 4): 0 no. (%)
Decreased appetite (Grade 4): 0 no. (%)
Dehydration (Grade 4): 0 no. (%)
Diarrhea (Grade 4): 0 no. (%)
Diverticulitis (Grade 4): 0 no. (%)
Drug hypersensitivity (Grade 4): 0 no. (%)
Encephalitis (Grade 4): 0 no. (%)
Esophagitis (Grade 4): 0 no. (%)
Euthanasia (Grade 4): 0 no. (%)
Fatigue (Grade 4): 0 no. (%)
Febrile neutropenia (Grade 4): 0 no. (%)
Femoral neck fracture (Grade 4): 0 no. (%)
Forced expiratory volume decreased (Grade 4): 0 no. (%)
Gastroenteritis norovirus (Grade 4): 0 no. (%)
Gastroenteritis salmonella (Grade 4): 0 no. (%)
General physical health deterioration (Grade 4): 0 no. (%)
Hematochezia (Grade 4): 0 no. (%)
Hepatic enzyme increased (Grade 4): 0 no. (%)
Hip fracture (Grade 4): 0 no. (%)
Hypercalcemia (Grade 4): 0 no. (%)
Hyperglycemia (Grade 4): 0 no. (%)
Hyperkalaemia (Grade 4): 0 no. (%)
Hypertriglyceridaemia (Grade 4): 0 no. (%)
Hypoalbuminemia (Grade 4): 0 no. (%)
Hypocalcaemia (Grade 4): 0 no. (%)
Hypokalemia (Grade 4): 0 no. (%)
Hyponatremia (Grade 4): 0 no. (%)
Ileus (Grade 4): 0 no. (%)
Infection (Grade 4): 0 no. (%)
Intestinal dilatation (Grade 4): 0 no. (%)
Intestinal hemorrhage (Grade 4): 0 no. (%)
Intestinal perforation (Grade 4): 0 no. (%)
Large intestine perforation (Grade 4): 0 no. (%)
Leukopenia (Grade 4): 0 no. (%)
Liver disorder (Grade 4): 0 no. (%)
Localized oedema (Grade 4): 0 no. (%)
Lung abscess (Grade 4): 0 no. (%)
Lymphocyte count decreased (Grade 4): 0 no. (%)
Lymphopenia (Grade 4): 0 no. (%)
Malignant ascites (Grade 4): 0 no. (%)
Malignant pleural effusion (Grade 4): 0 no. (%)
Malnutrition (Grade 4): 0 no. (%)
